{"source": "paper PMC4830539", "about": "“Chemical Inhibition of Histone Deacetylases 1 and 2 Induces Fetal Hemoglobin through Activation of GATA2” (PLoS ONE, 2016)", "key": {"[1]": {"tested_on": "GATA2 binding", "assay": "GATA2 ChIP-Seq in erythroid progenitors", "type": "cell-based, human", "settings": "1 μM", "protocol": "Cells were fixed in 1% formaldehyde for 15 minutes at room temperature. Crosslinking reaction was extinguished by adding glycine to 125 mM. Cells were washed three times in PBS, 0.5% lgepal CA-630, 1 mM phenylmethanesulfonyl fluoride (PMSF). Cell pellets were snap frozen on dry ice and stored at -80°C.\nChIP-Seq was performed by Active Motif (Carlsbad, CA). Chromatin (30 μg) from vehicle (n = 1) or ACY-957 (n = 1) treated cells was immunoprecipitated (n = 1, each) with antibodies against GATA2 (20 μL, sc-9008, Santa Cruz Biotechnology), HDAC1 (20 μg, ab7028, Abcam), or HDAC2 (4 μg, ab12169, Abcam). ChIP DNA, as well as a control sample composed of equal amounts of input DNA from each treatment group, was processed into Illumina libraries using standard procedures, and libraries were sequenced on HiSeq 2000. The 50-nt sequence reads were mapped to the human genome, build Hg19, using the BWA algorithm with default settings. For the analysis, all data files were normalized to the same number of unique alignments without duplicate reads (24 million). Sequence tags were extended in silico (using Active Motif software) at their 3′-ends to a length of 150 bp. To identify the density of fragments (extended tags) along the genome, the genome was divided into 32-nt bins and the number of fragments in each bin was determined. The resulting histogram files (bigwig format) are presented in figures using the Santa Cruz Genome Browser. Visualizations were exported as an eps file and formatted using Adobe Illustrator. Regions of GATA2 enrichment (intervals) were determined using MACS peak calling software, which identifies enrichments in the ACY-957 or vehicle treated ChIP data file when compared to the input DNA data file (random background). To compare peak metrics between vehicle and ACY-957 treated samples, overlapping intervals are grouped into active regions, which are defined by the start coordinate of the most upstream interval and the end coordinate of the most downstream interval. In locations where only one sample has an interval, this interval defines the active region. […]"}, "[2]": {"design": "method as in earlier work", "settings": "dog; cited from earlier work"}}, "data": [{"smiles": "Nc1ccc(-c2cccs2)cc1NC(=O)c1ccc2nc(N3CCNCC3)ccc2c1", "note": "[ACY-957]", "values": [{"measurement": "maximum increase in GATA2 binding peak height", "setting": "[1]; -1.8 kb GATA2 regulatory region", "value": 3, "unit": "fold"}, {"measurement": "GATA2 binding at the other 5 regions of the β-like globin gene cluster", "setting": "[1]; ChIP-Seq", "value": "not affected"}, {"measurement": "increase in GATA2 binding at the HBD promoter region", "setting": "[1]; ChIP-Seq", "value": 1.8, "unit": "fold"}, {"measurement": "pharmacokinetic properties", "setting": "[2]", "value": "favorable"}]}]}
